Values quoted from earlier work, collected in US11167013B2, “Sucrose acetate isobutyrate-based compositions, methods and uses thereof” (ASSOCIATION FOR THE ADVANCEMENT OF TISSUE ENGINEERING CELL …, priority 2017, dated 2021).

Key:
[1] = neat SAIB
[2] = as food additive

viscosity [1]: over 100 Pa·s | allowable daily intake [2]: 20 mg·kg/day
Substance: Sucrose acetate isobutyrate [SAIB]
